According to US20080119548A1, “Control Of Feeding Behavior By Changing Neuronal Energy Balance” (priority 2004, published 2008):
Read-outs that look alike come from different tables or passages of the source.

Key:
[1] = tested on: BALB/c male mice; assay: Measurement of food intake after i.c.v. or i.p. injection; type: in vivo; details: for reduction in food intake: compound C 5 mg i.c.v.
Experimental: Male BALB/c mice (7-9 weeks) were purchased from Charles River Laboratories (and housed in a controlled-light (12 hr light/12 hr dark cycle) environment (lights on 0200-1400 h) and allowed ad libitum access to standard laboratory chow and water. For fasting, food was withdrawn from cage at the onset of the dark cycle for 24 hr, but ad libitum access to water was allowed.
(§1) Mice were implanted with permanent stainless steel cannulae into the lateral ventricle of the brain 0.6 mm caudal to Bregma, 1.2 mm lateral to the midline, and sunk to a depth of 2.2 mm below the surface of the skull. Implanted mice were housed in individual cages and utilized for i.c.v. and i.p. injections as indicated. C75 dissolved in RPMI1640 (Gibco-BRL), AICAR (Toronto Research Chemicals Inc) or compound C (46) (FASgen, Inc.) in saline was injected i.c.v., such that desired dose could be administered in a volume of 2.5 μl, while control groups received vehicle only. Injections were done immediately preceding dark onset and food intake measurements were taken at 1 hr (0-1 hr interval), 3 hr (1-3 hr interval), and 24 hr (3-24 hr interval) after dark onset. C75 i.p./AICAR i.c.v. treatment groups were i.p. injected with 5 mg/kg bodyweight C75 dissolved in […] of glucose-free RPMI 1 hr before the dark onset, followed by 3 μg/2.5 μl saline i.c.v. AICAR immediately preceding the dark onset. Control groups received 200 μl of glucose free RPMI 1 hr before lights off and 2.5 μl of saline. Administration of i.p. compound C (10 or 30 mg/kg bodyweight) or C75 (10 mg/kg bodyweight) was followed by food intake measurement at the same times indicated.

[2] = Changes in bodyweight 24 hr after i.c.v. injection; type: in vivo, mice
Description: as §1, with “(d) Changes in bodyweight 24 hr after i.c.v. injection of C75, AICAR or compound C (n=4-10). Mice” for “Mice”, “[…],” for “C (46) (FASgen,”, “[…].” for “C75 i.p./AICAR i.c.v.”

[3] = chronic subcutaneous AICAR 1 g/kg bodyweight for 4 weeks; cited from earlier work
[4] = tested on: pCREB; assay: Immunohistochemistry of pCREB in the arcuate nucleus; type: in vivo, mice; details: AICAR (3 mg) i.c.v., 20 hr after injection
Experimental: Free-floating sections were blocked in PBS containing 5% goat serum, 0.1% BSA, 0.05% Triton-X100, 1 mM NaF for 1 hr at room temperature and incubated with anti-phospho-AMPKα (α1 and α2) antibody (1:100) or anti-phospho-CREB antibody (1:500, Cell Signaling) in PBS containing 1% goat serum, 0.1% BSA, 0.05% Triton-X100, 1 mM NaF overnight at 4° C. Signal was visualized by Vectastain ABC kit (Vector). Images of in situ hybridization and immunohistochemistry were visualized using an Axiocam HRc digital camera (Carl Zeiss) and images were acquired using Improvision Openlab software, and quantified by NIH Image program (Macro).

[5] = tested on: hypothalamic AMPKα (α1 and α2); assay: Western blot of phosphorylated AMPKα in hypothalamus; type: in vivo, mice; details: 30 min after i.c.v. injection
Experimental: Hypothalami were dissected using as landmarks the optic chiasm rostrally, and the mammillary bodies caudally to a depth of 2 mm. Dissected hypothalamic and liver tissue were immediately frozen in liquid nitrogen. Tissues were homogenized in 200 μl of lysis buffer (50 mM Tris-HCl, pH 7.5, 250 mM sucrose, 5 mM sodium pyrophosphate, 50 mM NaF, 1 mM EDTA, 1 mM EGTA, 1 mM DTT, 0.5 mM PMSF, 0.1 mM benzamidine, 50 μg/ml leupeptin, 50 μg/ml soybean trypsin inhibitor). SDS detergent was added to a final 0.2%, and lysates were boiled for 5 min. After the supernatant was harvested, protein concentration was determined by BCA kit (Bio Rad). Phosphorylation of AMPKα was determined on a 4-15% gradient SDS-polyacrylamide gel using anti-phospho-AMPKα (α1 and α2, Thr172) antibody (1:1000, Cell Signaling). Anti-AMPKαt antibody (α1 and α2, 1:1000, Cell Signaling) was used as a loading control.

[6] = tested on: hypothalamic NPY
Experimental: Hypothalamic total RNA was purified using Trizol reagent (Gibco-BRL) and Northern blot analysis using 15 μg of total RNA was performed as described by Kim, et al, Am J Physiol Endocrinol Metab., 283, […]-879 (2002). RNA was hybridized with random primed ^32P-labeled DNA probes made from cloned plasmids of mouse AGRP (Genebank #U89486), human NPY (XM004941), rat CART (U10071), and mouse POMC (AH005319). As a loading control, the probe for mouse GAPDH gene was used at the same blot. The signals were quantified using an image analyzer (Molecular Dynamics) and Imagequant software.

c1cc(-c2cnn3cc(-c4ccc(OCCN5CCCCC5)cc4)cnc23)ccn1 [compound C]
reduction in food intake ([1]; 0-1 hr): 36.2%
reduction in food intake ([1]; 3-24 hr): 37.8%
reduction in food intake ([1]; over 24 hr): 35.6%
food intake, % of control ([1]; compound C 30 mg/kg bodyweight i.p., 0-1 hr): 27.4 % of control
food intake, % of control ([1]; compound C 30 mg/kg bodyweight i.p., 1-3 hr): 3.68 % of control
food intake, % of control ([1]; compound C 30 mg/kg bodyweight i.p., 3-24 hr): 65.7 % of control
food intake, % of control ([1]; compound C 30 mg/kg bodyweight i.p., total): 57.8 % of control
bodyweight ([2]; compound C 5 mg i.c.v.): weight loss

NC(=O)c1ncn([C@@H]2O[C@H](CO)[C@@H](O)[C@H]2O)c1N [AICAR, 5-aminoimidazole-4-carboxamide-1-b-D-ribofuranoside]
bodyweight [3]: no impact
fat pad mass [3]: reduction in fat pad mass
food intake [3]: no impact
liver mass [3]: increase in liver mass
pCREB level in the arcuate, % of control [4]: 231 % of control
food intake, % of control ([1]; AICAR 3 μg i.c.v., 3-24 hr): 135%
total 24 hr food intake, % of control ([1]; AICAR 3 μg i.c.v., total 24 hr): 130 % of control
food intake, % of control ([1]; AICAR 3 μg i.c.v., within 1 hr): 230%
food intake at 1 hr, % of the amount of C75/saline treatment ([1]; C75 5 mg/kg i.p. followed 1 hr later by AICAR 3 mg i.c.v., p<0.001): 346%
C75-induced decrease in hypothalamic pAMPKα levels ([5]; i.p. C75 and i.c.v. AICAR): completely reversed
hypothalamic pAMPKα level ([5]; i.p. RPMI and i.c.v. AICAR, vs vehicle): increased
bodyweight ([2]; AICAR single dose 3 μg i.c.v.): no significant effect on bodyweight
hypothalamic NPY expression ([6]; AICAR (3 mg) i.c.v., 20 hrs after administration, p<0.001): significantly increased
NPY expression ([6]; AICAR i.c.v., within 5 hr (data not shown)): no change
